This is an account of results in US10555930B2, “Complex of a glucopyranosyl derivative and preparation method and use thereof” (SUNSHINE LAKE PHARMA CO., LTD., priority 2015, dated 2020).

The nature of the series: Measurement of stability (high-temperature, high-humidity and photostability tests; HPLC impurity content). It counts as physicochemical. To be noted: for total impurity / purity: 210 nm. On the procedure: An appropriate amount of the Complex (IA) sample (prepared from example 2) was weighed and tiled on a clean culture dish at a thickness of ≤5 mm, and analyzed under the following conditions:
The test sample was placed under a high temperature condition (60±2° C.) for 10 d, the relative indexes were measured at the fifth and tenth days. […] If no significant change, the test at 40° C. was not necessary.
The test sample was placed under a 25° C. and RH 90%±5% condition for 10 d, and the sample were measured at the fifth and tenth days. Test items should include a moisture-absorption weight gain. If weighting percentage of moisture absorption was more than 5%, the test should be carried out under a 25° C. and RH 75%±5% condition using the same method; If weighting percentage of moisture absorption was less than 5%, and other inspection items met the requirements, the test was not necessary. The constant humidity condition can be realized by adopting constant temperature humidity chamber or placing a saturated saline solution under a closed container. […]
The test sample was placed in light box or other suitable light vessel under a 4500 Lx±500 Lx of illuminance condition for 10 d, and the sample were measured at the fifth and tenth days.
The impurity content of the sample was calculated by the normalization method of peak area using an HPLC chromatographic instrument under the above condition, the analytic conditions were shown below:
The detection was performed on Agilent 1200DAD high pressure liquid chromatography spectrometer (Zorbax Eclipse Plus C18 150×4.6 mm chromatographic column).
The test condition of HPLC: the run time was 30 minutes (min); the column temperature was 35° C.; the detection was carried out at the wavelength of 210 nm and 225 nm;
Mobile phase: phase C: acetonitrile phase D: ultrapure water flow rate: 1.0 mL/min.
Gradient elution, the ratio of mobile phase was shown as table B.

Where [1] appears, read: high humidity (25° C., RH 90%±5%), 5 d, HPLC.
Where [2] appears, read: high humidity (25° C., RH 90%±5%), 10 d, HPLC.
Where [3] appears, read: high-temperature (60±2° C.), 5 d, HPLC.
[4] abbreviates: high-temperature (60±2° C.), 10 d, HPLC.
[5] abbreviates: illumination (4500 Lx±500 Lx), 5 d, HPLC.
Setting [6] is: illumination (4500 Lx±500 Lx), 10 d, HPLC.

For `CCOc1ccc(Cc2cc([C@]34OC[C@]([C@@H](C)O)(O3)[C@@H](O)[C@H](O)[C@H]4O)ccc2Cl)cc1` [compound (I-n) amorphism, (1R,2S,3S,4R,5S)-5-(4-chloro-3-(4-ethoxybenzyl)phenyl)-1-((1R)-1-hydroxyethyl)-6,8-dioxabicyclo[3.2.1]octane-2,3,4-triol], the total impurity was 0.25% (0 d, HPLC peak area normalization); 0.30% under setting [1]; 0.22% under setting [2]; 4.97% under setting [3]; 7.84% under setting [4]; 0.31% under setting [5]. The total impurity under setting [6] amounted to 0.28%. Besides, the purity stood at 99.75% (0 d, HPLC); 99.70% under setting [1]; 99.78% under setting [2]; 95.03% under setting [3]; 92.16% under setting [4]; 99.69% under setting [5]. In addition, the purity under setting [6] is listed as 99.72%. Also, the appearance result (high humidity (25° C., RH 90%±5%), 5 d) is “white bulk” and the appearance entry (high humidity (25° C., RH 90%±5%), 10 d) is “white bulk”. Further, the “stability (summary in words)” value (high-temperature, high humidity or illumination for 10 d, listed as compound (I-n) in amorphism form) is “poor stability”.
